# “Also recorded” adds a separate entry of the source.
# Experiments:
# Assay type in all cases: cell-based
# CDK4/6 [1] = assay: Characterization of CDK4/6 degraders/disruptors in various breast cancer and melanoma cells (summary, Examples 12 and 13)
# Procedure: Specific exemplary abemaciclib-, ribociclib-, and palbociclib-based CDK4/6 degraders/disruptors were characterized in various different breast cancer and melanoma cells (Examples 12 and 13, FIGS. 10-23). […] This efficacy in suppressing CDK4/6 expression and CDK4/6 activity correlated with efficacy in inhibiting cancer cell proliferation.
# (§1) Protein concentrations were determined by BCA from cell lysates and equal amounts of protein are loaded to a Bis-Tris 4-12% gel. Gels were run at 80 V for 4 h using 1× running buffer (25 mM Tris, pH 8.3, […] glycine, 0.1% SDS). Proteins were transferred to a nitrocellulose membrane for 2 h at 100 V using transfer buffer (25 mM Tris, pH 8.3, […] glycine, 20% methanol). Ponceau S staining (0.1% Ponceau S, 1% acetic acid) was used to confirm transfer of proteins to the membrane followed by blocking of the membrane for 30 min at room temperature using blocking buffer (5% dry nonfat milk, 0.1% Tween, 0.02% sodium azide in TBS). The blocked membrane is incubated with primary antibodies (1:1000 dilution) in blocking buffer at 4° C. overnight. When primary phosphor-antibodies were used, then the membrane is incubated with 5% BSA instead of milk. The membrane was washed three times, 10 min each, with wash buffer (0.1% Tween in TBS) followed by incubation with secondary HRP conjugated antibody (1:5000 dilution) in 2.5% dry nonfat milk, 0.1% Tween in TBS for 1 h at room temperature. The membrane was washed three times, 10 min each, with wash buffer (0.1% Tween in TBS). Membranes are incubated with ECL for 1 min and proteins are detected after exposure to a blue autoradiographic film.
# CDK4/6 [2] = assay: Western blot of CDK4 and CDK6 in MCF7 breast cancer cells treated with degraders (Example 12, FIG. 10 A); settings: 1 or 5 μM, 24 h
# Procedure: (§2) Breast cancer cell lines (MCF7, T47D, and ZR-75-1) and melanoma cell lines (A375, SK-MEL-2, SK-MEL-30, and WM1382) were cultured in the presence of DMEM or RPMI supplemented with 10% FBS in the presence of penicillin and streptomycin.
# as §1
# (§3) MCF7 breast cancer cells were treated with 1 or 5 μM XY019-095, XY019-098, XY019-0100, XY019-105A, XY019-105B, XY019-106, or XY019-108 for 24 h, then lysed and immunoblotted with antibodies to CDK4, CDK6, and actin (FIG. 10, panel A). […] T47D breast cancer cells were treated with 0.1, 0.3, 1, 3, 10, or 30 μM XY019-106 for 24 h, then lysed and immunoblotted with antibodies to phospho-Rb (pRB), CDK4, and actin (FIG. 10, panel B).
# CDK4/6 [3] = assay: Western blot of CDK4, CDK6 and phospho-Rb in SK-MEL-2 or A375 melanoma cells treated with degraders (Example 12, FIG. 11); settings: SK-MEL-2 or A375 cells; 1 or 3 μM; 24 h
# Procedure: as §2
# as §1, with “The membrane was washed three times, 10 min each, with wash buffer (0.1% Tween in TBS) followed by incubation with secondary HRP conjugated antibody (1:5000 dilution) in 2.5% dry nonfat milk, 0.1% Tween in TBS for 1 h at room temperature. The membrane was washed three times, 10 min each, with wash buffer (0.1% Tween in TBS).” left out, “film. […]” for “film.”
# CDK4/6 [4] = assay: Western blot of CDK4, CDK6 and phospho-Rb in A375 melanoma cells treated with degraders (Example 12, FIGS. 12, 13, 16, 18); settings: 1 or 3 μM, 24 h
# Procedure: as §2, §1
# A375 melanoma cells (FIG. 13) were treated with 1 or 3 μM Ribociclib (RB), YX030-126, YX030-108, YX030-107, YX030-086, YX030-085 or XY028-133 for 24 h, then lysed and immunoblotted with antibodies to CDK4, CDK6, cyclin A, PLK1, phospho-Rb (pRb), and actin.
# A375 melanoma cells (FIG. 16, panel A) were treated with 0.3 or 1 μM XY028-140, YX039-65, YX039-48, YX039-123, YX039-56, YX039-124 or YX039-147 for 24 h. A375 melanoma cells were treated with 1 or 3 μM XY028-140, YX039-56, YX039-65 or XY028-133 (FIG. 16, panel B). Cells were lysed and immunoblotted with antibodies to phospho-Rb (pRb), total Rb, PLK1, cyclin A, CDK4, CDK6, and actin.
# A375 melanoma cells (FIG. 18) were treated with 1 or 3 μM XY028-133, YX044-18, YX044-22, XY028-140, YX044-19 or YX044-38 for 24 h, then lysed and immunoblotted with antibodies to phospho-Rb (pRb), total Rb, PLK1, cyclin A, CDK4, CDK6, and actin.
# T47D breast cancer cells = assay: Crystal violet staining (clonogenic assay) of T47D breast cancer cells (Example 13, FIGS. 22, 23); settings: 11 days
# Procedure: Cells were cultured for 7-11 days in the presence of different compounds. Media with compound was replenished every two days. At the end of the experiment, media was aspirated and viable cells were stained with 0.5% crystal violet dye.
# CDK4/6 [5] = assay: Western blot of CDK4/6 and phospho-Rb in T47D breast cancer cells treated with degraders (Example 12, FIGS. 10 B, 17, 19); settings: 0.3 or 1 μM, 24 h
# Procedure: as §2, §1, §3
# T47D breast cancer cells (FIG. 17) were treated with 0.3 or 1 μM XY028-140, YX039-48, YX039-123, YX039-56, YX039-124, YX039-65, YX039-147 or YX039-74 for 24 h, then lysed and immunoblotted with antibodies to phospho-Rb (pRb), total Rb, PLK1, cyclin A, CDK4, CDK6, and actin.
# T47D breast cancer cells (FIG. 19) were treated with 0.3 or 1 μM XY028-133, YX044-18, YX044-22, XY028-140, YX044-19 or YX044-38 for 24 h, then lysed and immunoblotted with antibodies to phospho-Rb (pRb), total Rb, PLK1, cyclin A, CDK4, CDK6, and actin.
SMILES,suppression of both CDK4/6 expression and CDK4/6 activity (summary) (CDK4/6 [1]),suppression of CDK4/6 expression (CDK4/6 [2]),efficacy in inhibiting both CDK4/6 expression and CDK4/6 activity (decreased Rb phosphorylation) (CDK4/6 [3]),efficacy in inhibiting both CDK4/6 expression and CDK4/6 activity (decreased Rb phosphorylation) (CDK4/6 [4]),"inhibition of cancer cell proliferation compared with palbociclib (crystal violet staining) (T47D breast cancer cells; 0.003, 0.01 or 0.03 μM)","inhibition of cancer cell proliferation compared with palbociclib (crystal violet staining) (T47D breast cancer cells; 0.03, 0.1, 0.3, 1 or 3 μM)",efficacy in inhibiting both CDK4/6 expression and CDK4/6 activity (decreased Rb phosphorylation) (CDK4/6 [5])
"CC(=O)c1c(C)c2cnc(Nc3ccc(N4CCN(C(=O)COCCOCCOCC(=O)N[C@H](C(=O)N5C[C@H](O)C[C@H]5C(=O)NCc5ccc(-c6scnc6C)cc5)C(C)(C)C)CC4)cn3)nc2n(C2CCCC2)c1=O [XY019-098, (2S,4R)-1-((S)-14-(4-(6-((6-acetyl-8-cyclopentyl-5-methyl-7-oxo-7,8-dihydropyrido[2,3-d]pyrimidin-2-yl)amino)pyridin-3-yl)piperazin-1-yl)-2-(tert-butyl)-4,14-dioxo-6,9,12-trioxa-3-azatetradecanoyl)-4-hydroxy-N-(4-(4-methylthiazol-5-yl)benzyl)pyrrolidine-2-carboxamide]",especially effective in suppressing both CDK4/6 expression and CDK4/6 activity,especially effective in suppressing CDK4/6 expression even at 1 μM,–,–,–,–,–
"CC(=O)c1c(C)c2cnc(Nc3ccc(N4CCN(C(=O)CCOCCOCCOCCNc5cccc6c5C(=O)N(C5CCC(=O)NC5=O)C6=O)CC4)cn3)nc2n(C2CCCC2)c1=O (centres unmarked) [XY019-108, 4-((2-(2-(2-(3-(4-(6-((6-acetyl-8-cyclopentyl-5-methyl-7-oxo-7,8-dihydropyrido[2,3-d]pyrimidin-2-yl)amino)pyridin-3-yl)piperazin-1-yl)-3-oxopropoxy)ethoxy)ethoxy)ethyl)amino)-2-(2,6-dioxopiperidin-3-yl)isoindoline-1,3-dione]",especially effective in suppressing both CDK4/6 expression and CDK4/6 activity,especially effective in suppressing CDK4/6 expression even at 1 μM,–,–,–,–,–
"CC(=O)c1c(C)c2cnc(Nc3ccc(N4CCN(C(=O)CCOCCC(=O)N[C@H](C(=O)N5C[C@H](O)C[C@H]5C(=O)NCc5ccc(-c6scnc6C)cc5)C(C)(C)C)CC4)cn3)nc2n(C2CCCC2)c1=O [XY028-003, (2S,4R)-1-((S)-2-(3-(3-(4-(6-((6-acetyl-8-cyclopentyl-5-methyl-7-oxo-7,8-dihydropyrido[2,3-d]pyrimidin-2-yl)amino)pyridin-3-yl)piperazin-1-yl)-3-oxopropoxy)propanamido)-3,3-dimethylbutanoyl)-4-hydroxy-N-(4-(4-methylthiazol-5-yl)benzyl)pyrrolidine-2-carboxamide]",especially effective in suppressing both CDK4/6 expression and CDK4/6 activity,–,"efficacy of CDK4/6 degraders/disruptors, particularly XY019-106 and XY028-003","efficacy of CDK4/6 degraders, particularly XY028-133, XY028-140, XY019-106 and XY028-003",–,–,–
"CC(=O)c1c(C)c2cnc(Nc3ccc(N4CCN(C(=O)CNc5cccc6c5C(=O)N(C5CCC(=O)NC5=O)C6=O)CC4)cn3)nc2n(C2CCCC2)c1=O (centres unmarked) [XY028-140, 4-((2-(4-(6-((6-acetyl-8-cyclopentyl-5-methyl-7-oxo-7,8-dihydropyrido[2,3-d]pyrimidin-2-yl)amino)pyridin-3-yl)piperazin-1-yl)-2-oxoethyl)amino)-2-(2,6-dioxopiperidin-3-yl)isoindoline-1,3-dione]",especially effective in suppressing both CDK4/6 expression and CDK4/6 activity,–,–,"efficacy of CDK4/6 degraders, particularly XY028-133, XY028-140, XY019-106 and XY028-003",inhibited cancer cell proliferation more effective that palbociclib at the same concentration,inhibited cancer cell proliferation more effective that palbociclib at the same concentration,"efficacy of CDK4/6 degraders, particularly XY028-140 and YX039-123; also recorded: efficacy of CDK4/6 degraders, particularly XY028-140 and YX044-22 and YX044-19"
"CC(=O)c1c(C)c2cnc(Nc3ccc(N4CCN(C(=O)COc5cccc6c5CN(C5CCC(=O)NC5=O)C6=O)CC4)cn3)nc2n(C2CCCC2)c1=O (centres unmarked) [YX039-123, 3-(4-(2-(4-(6-((6-acetyl-8-cyclopentyl-5-methyl-7-oxo-7,8-dihydropyrido[2,3-d]pyrimidin-2-yl)amino)pyridin-3-yl)piperazin-1-yl)-2-oxoethoxy)-1-oxoisoindolin-2-yl)piperidine-2,6-dione]",especially effective in suppressing both CDK4/6 expression and CDK4/6 activity,–,–,–,inhibited cancer cell proliferation more effective that palbociclib at the same concentration,inhibited cancer cell proliferation more effective that palbociclib at the same concentration,"efficacy of CDK4/6 degraders, particularly XY028-140 and YX039-123"
"CC(=O)c1c(C)c2cnc(Nc3ccc(N4CCN(C(=O)CCCCCC(=O)N[C@H](C(=O)N5C[C@H](O)C[C@H]5C(=O)N[C@@H](C)c5ccc(-c6scnc6C)cc5)C(C)(C)C)CC4)cn3)nc2n(C2CCCC2)c1=O [YX044-22, (2S,4R)-1-((S)-2-(7-(4-(6-((6-acetyl-8-cyclopentyl-5-methyl-7-oxo-7,8-dihydropyrido[2,3-d]pyrimidin-2-yl)amino)pyridin-3-yl)piperazin-1-yl)-7-oxoheptanamido)-3,3-dimethylbutanoyl)-4-hydroxy-N-((S)-1-(4-(4-methylthiazol-5-yl)phenyl)ethyl)pyrrolidine-2-carboxamide]",–,–,–,–,–,–,"efficacy of CDK4/6 degraders, particularly XY028-140 and YX044-22 and YX044-19"
